{
  "source": "patent US20080033026A1",
  "about": "“Antimicrobial compositions, methods and systems” (priority 2006, published 2008)",
  "system": "Campylobacter jejuni (ATCC 29428)",
  "test": "Preservative effectiveness on food pathogens (US Pharmacopoeia 23)",
  "type": "cell-based",
  "experimental": "The effectiveness of 9-decenoic acid on food pathogens was determined using the protocol on preservative effectiveness found in the US Pharmacopoeia 23, 1995.\nStock cultures of the Listeria monocytogenes (ATCC 1911-1), Salmonella enteritidis (ATCC 13076) and Campylobacter jejuni (ATCC 29428) were transferred for at least three consecutives days on Trypticase Soy Agar (TSA) and incubated at 30-35° C. for 18-24 hours. On the day of the test, the cells were washed from the agar surface with sterile saline containing 0.05% w/v Polysorbate 80 (SS+) and the suspension was centrifuged at 2000 rpm for 15 minutes and resuspended in SS+. The suspension was diluted to approximately 10^8 CFU/ml.\n[…] The samples were dispensed in 20 ml aliquots in sterile test tubes. For each concentration tested, a 0.1 ml aliquot of each inoculum was added to a final concentration of 10^5 to 10^6 CFU/ml. The tubes were incubated at room temperature and sampled on days 0, 1, 2, 4, 7, 14, 21 and 28.\nAt each sample point, 1.0 ml aliquots were withdrawn, serially diluted and plated in triplicate on TSA. The plates were incubated at 30-35° C. for 2-4 days. The colonies were counted and the average CFU/ml was calculated. Controls for purity, viability and sterility were performed as described previously.\nAccording to the US Pharmacopoeia, a test compound is an effective preservative if the concentrations of viable bacteria remain at or below the initial concentrations during the first fourteen days and after 28 days.\nAdditionally, test organisms in Tables 9-11 were exposed to the 9-decenoic acid for several minutes before analysis at Day 0. As shown in the Tables 9-11, significant biocidal activity was observed even within this short time period for the test organisms, illustrating the effectiveness of 9-decenoic acid as a biocidal agent.",
  "data": [
    {"smiles": "C=CCCCCCCCC(=O)O", "note": "[9-decenoic acid]", "values": [
      {"measurement": "Log reduction", "setting": "0.0078% 9-decenoic acid, exposure day 0", "result": 0, "unit": "log"},
      {"measurement": "Log reduction", "setting": "0.0078% 9-decenoic acid, exposure day 1", "result": 0.67, "unit": "log"},
      {"measurement": "Log reduction", "setting": "0.0078% 9-decenoic acid, exposure day 2", "result": 5.1, "unit": "log"},
      {"measurement": "Log reduction", "setting": "0.0078% 9-decenoic acid, exposure day 4", "result": 5.1, "unit": "log"},
      {"measurement": "Log reduction", "setting": "0.0078% 9-decenoic acid, exposure day 7", "result": 5.1, "unit": "log"},
      {"measurement": "Log reduction", "setting": "0.0078% 9-decenoic acid, exposure day 14", "result": 5.1, "unit": "log"},
      {"measurement": "Log reduction", "setting": "0.0078% 9-decenoic acid, exposure day 21", "result": 5.1, "unit": "log"},
      {"measurement": "Log reduction", "setting": "0.0078% 9-decenoic acid, exposure day 28", "result": 5.1, "unit": "log"},
      {"measurement": "Log reduction", "setting": "0.015% 9-decenoic acid, exposure day 0", "result": 2.8, "unit": "log"},
      {"measurement": "Log reduction", "setting": "0.015% 9-decenoic acid, exposure day 1", "result": 5.1, "unit": "log"},
      {"measurement": "Log reduction", "setting": "0.015% 9-decenoic acid, exposure day 2", "result": 5.1, "unit": "log"},
      {"measurement": "Log reduction", "setting": "0.015% 9-decenoic acid, exposure day 4", "result": 5.1, "unit": "log"},
      {"measurement": "Log reduction", "setting": "0.015% 9-decenoic acid, exposure day 7", "result": 5.1, "unit": "log"},
      {"measurement": "Log reduction", "setting": "0.015% 9-decenoic acid, exposure day 14", "result": 5.1, "unit": "log"},
      {"measurement": "Log reduction", "setting": "0.015% 9-decenoic acid, exposure day 21", "result": 5.1, "unit": "log"},
      {"measurement": "Log reduction", "setting": "0.015% 9-decenoic acid, exposure day 28", "result": 5.1, "unit": "log"},
      {"measurement": "Log reduction", "setting": "0.03% 9-decenoic acid, exposure day 0", "result": 5.1, "unit": "log"},
      {"measurement": "Log reduction", "setting": "0.03% 9-decenoic acid, exposure day 1", "result": 5.1, "unit": "log"},
      {"measurement": "Log reduction", "setting": "0.03% 9-decenoic acid, exposure day 2", "result": 5.1, "unit": "log"},
      {"measurement": "Log reduction", "setting": "0.03% 9-decenoic acid, exposure day 4", "result": 5.1, "unit": "log"},
      {"measurement": "Log reduction", "setting": "0.03% 9-decenoic acid, exposure day 7", "result": 5.1, "unit": "log"},
      {"measurement": "Log reduction", "setting": "0.03% 9-decenoic acid, exposure day 14", "result": 5.1, "unit": "log"},
      {"measurement": "Log reduction", "setting": "0.03% 9-decenoic acid, exposure day 21", "result": 5.1, "unit": "log"},
      {"measurement": "Log reduction", "setting": "0.03% 9-decenoic acid, exposure day 28", "result": 5.1, "unit": "log"},
      {"measurement": "Concentration at which effective preservative", "setting": "US Pharmacopoeia definition, 28 days", "result": "≤ 0.0078", "unit": "%"},
      {"measurement": "Exposure time at which bactericidal", "setting": "at 0.0015%", "result": 1, "unit": "days"},
      {"measurement": "Exposure time at which bactericidal", "setting": "at 0.0078%", "result": 2, "unit": "days"},
      {"measurement": "Exposure time at which bactericidal", "setting": "for 0.003%", "result": 0, "unit": "days"}
    ]}
  ]
}
